In paper PMC11864979, “First-in-class ultralong-target-residence-time p38α inhibitors as a mitosis-targeted therapy for colorectal cancer” (Nature Cancer, 2025):
Where two headings read alike, the source gives them in different places.

Key:
Assay in all cases: selectivity profiling in a panel of 340 wild-type kinases (Reaction Biology Europe)
Type in all cases: binding
[1] = biological target: T1, 340 wild-type kinases (Homo sapiens, UniProt Q13164)
T1 construct: purchased Reaction Biology Europe

[2] = biological target: T2, 340 wild-type kinases (Homo sapiens, UniProt Q16566)
T2 construct: purchased Reaction Biology Europe
T2 sequence (Q16566 1-473): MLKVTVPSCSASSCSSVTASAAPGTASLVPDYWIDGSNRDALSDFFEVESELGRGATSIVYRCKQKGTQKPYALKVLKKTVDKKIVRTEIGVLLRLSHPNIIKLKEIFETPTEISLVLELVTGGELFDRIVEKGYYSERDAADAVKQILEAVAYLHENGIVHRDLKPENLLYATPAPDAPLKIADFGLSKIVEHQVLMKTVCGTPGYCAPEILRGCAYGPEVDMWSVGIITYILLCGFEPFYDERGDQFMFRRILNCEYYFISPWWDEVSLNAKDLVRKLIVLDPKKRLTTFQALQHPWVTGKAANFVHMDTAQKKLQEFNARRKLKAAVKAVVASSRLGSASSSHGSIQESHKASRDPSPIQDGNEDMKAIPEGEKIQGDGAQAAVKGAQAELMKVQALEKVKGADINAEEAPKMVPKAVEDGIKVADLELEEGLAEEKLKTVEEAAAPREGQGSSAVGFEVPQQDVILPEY

[3] = biological target: T3, 340 wild-type kinases (Homo sapiens, UniProt O15111)
T3 construct: purchased Reaction Biology Europe
T3 sequence (O15111 1-745): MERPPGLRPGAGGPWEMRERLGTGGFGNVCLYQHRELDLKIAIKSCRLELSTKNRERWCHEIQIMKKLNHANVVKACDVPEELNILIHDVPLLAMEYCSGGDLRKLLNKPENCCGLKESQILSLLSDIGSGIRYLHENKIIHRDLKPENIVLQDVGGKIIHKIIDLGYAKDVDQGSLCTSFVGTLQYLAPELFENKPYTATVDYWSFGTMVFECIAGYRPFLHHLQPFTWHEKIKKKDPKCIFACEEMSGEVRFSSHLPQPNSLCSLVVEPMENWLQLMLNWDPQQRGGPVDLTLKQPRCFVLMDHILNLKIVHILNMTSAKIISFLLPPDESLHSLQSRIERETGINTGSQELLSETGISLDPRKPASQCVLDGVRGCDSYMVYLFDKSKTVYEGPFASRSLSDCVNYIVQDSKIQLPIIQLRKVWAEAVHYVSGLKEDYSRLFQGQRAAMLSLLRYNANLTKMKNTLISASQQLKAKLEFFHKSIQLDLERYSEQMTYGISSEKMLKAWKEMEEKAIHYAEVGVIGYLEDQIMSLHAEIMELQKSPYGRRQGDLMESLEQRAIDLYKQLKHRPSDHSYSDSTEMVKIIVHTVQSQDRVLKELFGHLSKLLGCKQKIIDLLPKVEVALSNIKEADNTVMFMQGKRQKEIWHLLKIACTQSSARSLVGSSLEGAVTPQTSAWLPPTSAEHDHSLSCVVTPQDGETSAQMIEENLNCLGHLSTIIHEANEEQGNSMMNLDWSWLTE

[4] = biological target: T4, 340 wild-type kinases (Homo sapiens, UniProt Q00536)
T4 construct: purchased Reaction Biology Europe

[5] = biological target: T5, 340 wild-type kinases (Homo sapiens, UniProt Q13555)
T5 construct: purchased Reaction Biology Europe

[6] = biological target: T6, 340 wild-type kinases (Homo sapiens, UniProt Q32MK0)
T6 construct: purchased Reaction Biology Europe
T6 sequence (Q32MK0 1-819): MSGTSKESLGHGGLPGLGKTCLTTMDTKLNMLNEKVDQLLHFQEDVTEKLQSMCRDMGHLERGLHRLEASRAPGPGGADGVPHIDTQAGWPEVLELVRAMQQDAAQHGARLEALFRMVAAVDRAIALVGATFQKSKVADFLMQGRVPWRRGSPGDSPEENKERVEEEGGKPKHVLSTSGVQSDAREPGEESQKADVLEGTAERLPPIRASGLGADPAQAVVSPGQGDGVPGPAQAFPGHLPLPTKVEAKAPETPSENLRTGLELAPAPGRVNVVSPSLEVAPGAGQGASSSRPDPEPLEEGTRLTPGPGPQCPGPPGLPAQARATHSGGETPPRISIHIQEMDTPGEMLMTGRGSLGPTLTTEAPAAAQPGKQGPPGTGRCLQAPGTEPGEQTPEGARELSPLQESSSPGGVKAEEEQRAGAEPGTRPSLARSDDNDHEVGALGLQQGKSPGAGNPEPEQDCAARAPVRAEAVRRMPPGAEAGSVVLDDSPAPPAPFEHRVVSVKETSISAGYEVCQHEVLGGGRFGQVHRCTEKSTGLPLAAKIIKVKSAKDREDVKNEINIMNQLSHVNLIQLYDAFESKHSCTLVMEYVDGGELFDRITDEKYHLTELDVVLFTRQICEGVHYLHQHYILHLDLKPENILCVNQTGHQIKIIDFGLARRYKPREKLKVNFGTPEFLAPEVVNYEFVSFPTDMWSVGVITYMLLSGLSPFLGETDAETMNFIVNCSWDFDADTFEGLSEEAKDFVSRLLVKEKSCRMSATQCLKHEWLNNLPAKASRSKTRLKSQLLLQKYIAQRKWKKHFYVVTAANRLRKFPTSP

[7] = biological target: T7, 340 wild-type kinases (Homo sapiens, UniProt Q15375)
T7 construct: purchased Reaction Biology Europe

[8] = biological target: T8, 340 wild-type kinases (Homo sapiens, UniProt Q9NYL2)
T8 construct: purchased Reaction Biology Europe
T8 sequence (Q9NYL2 whole entry): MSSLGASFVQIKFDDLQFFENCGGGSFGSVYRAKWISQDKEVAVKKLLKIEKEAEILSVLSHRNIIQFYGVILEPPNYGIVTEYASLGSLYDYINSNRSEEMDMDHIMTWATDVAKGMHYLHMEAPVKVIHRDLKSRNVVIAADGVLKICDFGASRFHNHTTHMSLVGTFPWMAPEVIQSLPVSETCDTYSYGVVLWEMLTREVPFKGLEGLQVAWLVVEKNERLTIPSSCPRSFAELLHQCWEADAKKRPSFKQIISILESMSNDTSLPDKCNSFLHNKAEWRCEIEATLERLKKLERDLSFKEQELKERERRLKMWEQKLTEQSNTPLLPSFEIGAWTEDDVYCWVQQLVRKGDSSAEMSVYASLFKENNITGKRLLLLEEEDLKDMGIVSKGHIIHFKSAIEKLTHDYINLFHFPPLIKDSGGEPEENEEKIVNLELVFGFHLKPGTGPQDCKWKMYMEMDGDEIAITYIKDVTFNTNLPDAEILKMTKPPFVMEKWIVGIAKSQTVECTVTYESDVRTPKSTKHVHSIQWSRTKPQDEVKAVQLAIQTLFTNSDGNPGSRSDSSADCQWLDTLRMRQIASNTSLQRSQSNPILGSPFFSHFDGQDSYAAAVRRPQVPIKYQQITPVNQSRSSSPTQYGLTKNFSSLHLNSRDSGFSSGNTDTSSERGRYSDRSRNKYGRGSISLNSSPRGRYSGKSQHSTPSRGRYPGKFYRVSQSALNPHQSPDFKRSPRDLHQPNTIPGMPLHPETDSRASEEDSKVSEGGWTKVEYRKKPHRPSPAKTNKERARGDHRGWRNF

T1 sequence (Q13164 whole entry): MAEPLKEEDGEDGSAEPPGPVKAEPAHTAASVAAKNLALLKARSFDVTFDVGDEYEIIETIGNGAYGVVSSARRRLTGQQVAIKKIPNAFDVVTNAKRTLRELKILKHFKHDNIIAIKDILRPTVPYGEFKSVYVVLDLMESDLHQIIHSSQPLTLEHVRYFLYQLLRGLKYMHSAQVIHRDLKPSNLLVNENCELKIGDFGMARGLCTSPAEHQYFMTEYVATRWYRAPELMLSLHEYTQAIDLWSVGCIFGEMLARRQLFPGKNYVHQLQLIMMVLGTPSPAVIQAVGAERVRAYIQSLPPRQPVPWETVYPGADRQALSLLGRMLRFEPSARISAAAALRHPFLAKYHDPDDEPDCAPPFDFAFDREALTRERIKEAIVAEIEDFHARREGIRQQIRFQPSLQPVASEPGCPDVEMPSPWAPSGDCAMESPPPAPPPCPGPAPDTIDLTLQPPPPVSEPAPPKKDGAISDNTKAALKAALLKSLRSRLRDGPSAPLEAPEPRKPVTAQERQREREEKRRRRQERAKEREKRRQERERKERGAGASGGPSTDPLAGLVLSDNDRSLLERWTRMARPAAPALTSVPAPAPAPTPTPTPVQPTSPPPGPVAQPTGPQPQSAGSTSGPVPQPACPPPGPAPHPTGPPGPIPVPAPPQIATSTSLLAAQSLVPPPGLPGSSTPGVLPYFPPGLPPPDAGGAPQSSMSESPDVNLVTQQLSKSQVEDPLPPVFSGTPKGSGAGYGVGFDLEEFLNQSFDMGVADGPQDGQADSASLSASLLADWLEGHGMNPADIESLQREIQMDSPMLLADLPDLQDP
T5 sequence (Q13555 whole entry): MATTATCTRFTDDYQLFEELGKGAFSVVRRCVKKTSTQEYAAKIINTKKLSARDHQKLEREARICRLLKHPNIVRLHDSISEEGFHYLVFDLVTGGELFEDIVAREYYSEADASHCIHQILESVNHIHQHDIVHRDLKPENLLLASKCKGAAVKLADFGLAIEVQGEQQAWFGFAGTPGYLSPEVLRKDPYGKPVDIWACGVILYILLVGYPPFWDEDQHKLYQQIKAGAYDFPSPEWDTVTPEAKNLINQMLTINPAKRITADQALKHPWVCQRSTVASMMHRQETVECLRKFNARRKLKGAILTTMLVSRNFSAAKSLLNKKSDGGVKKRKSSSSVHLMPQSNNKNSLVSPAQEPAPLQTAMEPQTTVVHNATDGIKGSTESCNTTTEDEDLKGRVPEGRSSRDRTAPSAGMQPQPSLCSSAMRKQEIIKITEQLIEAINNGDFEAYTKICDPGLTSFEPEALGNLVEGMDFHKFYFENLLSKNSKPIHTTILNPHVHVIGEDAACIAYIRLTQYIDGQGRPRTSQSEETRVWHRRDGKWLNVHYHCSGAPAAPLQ
T4 sequence (Q00536 whole entry): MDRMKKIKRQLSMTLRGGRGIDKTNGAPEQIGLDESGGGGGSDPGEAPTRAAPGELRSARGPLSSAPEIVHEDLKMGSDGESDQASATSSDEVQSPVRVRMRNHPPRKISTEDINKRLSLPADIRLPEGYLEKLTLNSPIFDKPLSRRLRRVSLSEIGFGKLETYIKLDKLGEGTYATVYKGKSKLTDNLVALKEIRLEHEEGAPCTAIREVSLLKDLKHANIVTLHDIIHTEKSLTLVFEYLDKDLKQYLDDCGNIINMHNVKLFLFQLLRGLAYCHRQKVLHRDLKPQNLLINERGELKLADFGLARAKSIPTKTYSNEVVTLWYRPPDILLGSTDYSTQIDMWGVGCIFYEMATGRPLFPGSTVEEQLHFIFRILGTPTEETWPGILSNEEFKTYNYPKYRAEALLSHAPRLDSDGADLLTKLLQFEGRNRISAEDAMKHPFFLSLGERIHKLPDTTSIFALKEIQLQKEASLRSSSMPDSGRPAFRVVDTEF
T7 sequence (Q15375 28-998): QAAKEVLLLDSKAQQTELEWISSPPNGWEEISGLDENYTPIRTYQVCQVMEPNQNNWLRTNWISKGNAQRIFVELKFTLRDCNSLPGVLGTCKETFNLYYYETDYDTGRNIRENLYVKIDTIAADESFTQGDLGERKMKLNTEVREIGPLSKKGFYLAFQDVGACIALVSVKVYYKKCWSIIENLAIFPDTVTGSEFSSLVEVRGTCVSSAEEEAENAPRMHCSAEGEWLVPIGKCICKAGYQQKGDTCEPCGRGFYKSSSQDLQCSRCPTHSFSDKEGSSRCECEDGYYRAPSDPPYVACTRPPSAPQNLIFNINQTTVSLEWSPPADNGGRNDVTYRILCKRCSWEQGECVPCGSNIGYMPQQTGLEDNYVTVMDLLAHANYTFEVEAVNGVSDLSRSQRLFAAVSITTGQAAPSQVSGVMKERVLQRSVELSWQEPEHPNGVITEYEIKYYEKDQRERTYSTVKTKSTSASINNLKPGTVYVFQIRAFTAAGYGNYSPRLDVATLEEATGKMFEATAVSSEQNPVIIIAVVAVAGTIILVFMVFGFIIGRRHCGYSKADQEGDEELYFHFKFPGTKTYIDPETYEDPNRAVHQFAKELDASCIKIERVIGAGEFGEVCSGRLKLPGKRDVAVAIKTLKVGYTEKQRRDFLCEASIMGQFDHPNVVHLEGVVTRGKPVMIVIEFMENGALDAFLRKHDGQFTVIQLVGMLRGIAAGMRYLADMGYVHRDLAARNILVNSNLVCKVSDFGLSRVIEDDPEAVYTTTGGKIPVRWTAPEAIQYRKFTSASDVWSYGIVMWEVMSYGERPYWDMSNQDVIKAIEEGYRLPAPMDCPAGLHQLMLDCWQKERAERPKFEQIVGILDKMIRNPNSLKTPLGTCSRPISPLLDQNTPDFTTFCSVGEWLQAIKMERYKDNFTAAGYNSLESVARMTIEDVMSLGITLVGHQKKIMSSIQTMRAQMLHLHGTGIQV

CNC(=O)c1ccc2c(c1)C(=O)c1ccc(Nc3ccc(F)c(NC(=O)C4CC4)c3)cc1CC2 [Compound 2015]
remaining activity at 0.2 µM ([1]; 0.2 µM 2015, read-out: ERK5 residual activity): 112% | remaining activity at 1 µM ([1]; 1 µM 2015, read-out: ERK5 residual activity): 99% | remaining activity at 0.2 µM ([1]; ERK5, 0.2 µM, read-out: residual activity): 112% | remaining activity at 1 µM ([1]; ERK5, 1 µM, read-out: residual activity): 99% | remaining activity at 0.2 µM ([2]; 0.2 µM 2015, read-out: CAMK4 residual activity): 92.7% | remaining activity at 1 µM ([2]; 1 µM 2015, read-out: CAMK4 residual activity): 94.1% | remaining activity at 0.2 µM ([2]; CAMK4, 0.2 µM, read-out: residual activity): 92.7% | remaining activity at 1 µM ([2]; CAMK4, 1 µM, read-out: residual activity): 94.2% | remaining activity at 0.2 µM ([3]; 0.2 µM 2015, read-out: IKKalpha residual activity): 97.6% | remaining activity at 1 µM ([3]; 1 µM 2015, read-out: IKKalpha residual activity): 92% | remaining activity at 0.2 µM ([3]; IKKalpha, 0.2 µM, read-out: residual activity): 97.6% | remaining activity at 1 µM ([3]; IKKalpha, 1 µM, read-out: residual activity): 92% | remaining activity at 0.2 µM ([4]; 0.2 µM 2015, read-out: CDK16/CycY residual activity): 99.3% | remaining activity at 1 µM ([4]; 1 µM 2015, read-out: CDK16/CycY residual activity): 96.8% | remaining activity at 0.2 µM ([4]; CDK16/CycY, 0.2 µM, read-out: residual activity): 99.3% | remaining activity at 1 µM ([4]; CDK16/CycY, 1 µM, read-out: residual activity): 96.8% | remaining activity at 0.2 µM ([5]; 0.2 µM 2015, read-out: CAMK2G residual activity): 99% | remaining activity at 1 µM ([5]; 1 µM 2015, read-out: CAMK2G residual activity): 90.5% | remaining activity at 0.2 µM ([5]; CAMK2G, 0.2 µM, read-out: residual activity): 99% | remaining activity at 1 µM ([5]; CAMK2G, 1 µM, read-out: residual activity): 90.5% | remaining activity at 0.2 µM ([6]; 0.2 µM 2015, read-out: MYLK3 residual activity): 106% | remaining activity at 1 µM ([6]; 1 µM 2015, read-out: MYLK3 residual activity): 93.5% | remaining activity at 0.2 µM ([6]; MYLK3, 0.2 µM, read-out: residual activity): 106% | remaining activity at 1 µM ([6]; MYLK3, 1 µM, read-out: residual activity): 93.5% | remaining activity at 0.2 µM ([7]; 0.2 µM 2015, read-out: EPHA7 residual activity): 126% | remaining activity at 1 µM ([7]; 1 µM 2015, read-out: EPHA7 residual activity): 106% | remaining activity at 0.2 µM ([7]; EPHA7, 0.2 µM, read-out: residual activity): 126% | remaining activity at 1 µM ([7]; EPHA7, 1 µM, read-out: residual activity): 106% | remaining activity at 0.2 µM ([8]; 0.2 µM 2015, read-out: ZAK residual activity): 110% | remaining activity at 1 µM ([8]; 1 µM 2015, read-out: ZAK residual activity): 104% | remaining activity at 0.2 µM ([8]; ZAK, 0.2 µM, read-out: residual activity): 110% | remaining activity at 1 µM ([8]; ZAK, 1 µM, read-out: residual activity): 104%
